Experimental data: patent US20030100598A1, “Novel esters derived from (rr,ss)-2-hydroxybenzoate of 3-(2-dimethylaminomethyl-1-hydroxycyclohexyl)phenyl” (priority 1999, published 2003)

What was measured:
Male Swiss mice [1] = experiment: Determination of the DL50 (acute single dose oral toxicity); type: in vivo; conditions: oral adm., 14 days observation
Procedure: (EUDRA/S/87/011, Single Dose Toxicity, European Directive 75/318/EEC) (ICH S4, Toxicity Studies, single dose and repeated dose, CPMP vol III February 87, Single dose toxicity)
Male Swiss mice of the same batch weighing 20-25 g are used in order to estimate the acute toxicity of the products.
Prior to administering the products, the animals were forced to fast for 12 hours with no intake of food but free access to water. Several subgroups of 10 animals were randomly selected and orally given increasing doses of the products in single administration, after which they remained under observation for a period of 14 days with free access to water and food. Finally, the number of dead animals of each subgroup was quantified and the value of the DL50 was calculated (1-2).

Male Swiss mice [2] = experiment: Hot plate method, analgesic activity in mice; type: in vivo; conditions: for % response time increase on hot plate: 20 μmol/kg, oral adm., n = 20-40; for % response time increase: hot plate, 15 mg/kg, intraperitoneal adm., n = 20
Procedure: The method that was used is described by Eddy N. B. and Leimbach D. (J. Pharm. Exp. Ther. 107: 385-393, 1953). The analgesic effect of the products was evaluated analysing the behaviour of the animals on a hot surface at 55° C.±1° C.
Male Swiss mice weighing 20-25 g were used. The compounds being tested were administered orally or intraperitoneally 1 hour ∘ 30 minutes before starting the test, respectively.
The process consisted of placing the animals on the plate and keeping them in a Plexiglas cylinder 25 cm high and 21 cm […]. The time the animals took to jump off the hot surface was determined. The animals were selected before starting the test so that those that took longer than 10 seconds to jump off were not included in the group that would receive treatment.
30 minutes after administering the product being tested, the test was repeated and the maximum time it took the animals to jump off was again recorded.
The results are expressed as the % of jump time increase calculated as follows: [formula]
In order to determine the duration of the analgesic effect of the orally administered products, the analgesic activity was evaluated on the hot plate 1, 3, 6, 8, and 24 hours after the administration of the product, as well as the control group which received treatment only with the vehicle. The base responses were evaluated at 30 and 5 minutes prior to administering the products.

Row | Compound | DL50 approx. (Male Swiss mice [1]) [mg/kg] | % response time increase on hot plate (Male Swiss mice [2]) [%] | % response time increase (Male Swiss mice [2]) [%]
1 | COc1cccc(C2(O)CCCCC2CN(C)C)c1 (single isomer, unassigned) [Tramadol, (1R, 2R or 1S, 2S)-2-[(dimethylamino)methyl]-1-(3-methoxyphenyl) cyclohexano, reference compound] | ~350 | 87 ± 23 | 218 ± 98
2 | CC(C)Cc1ccc(C(C)C(=O)Oc2cccc(C3(O)CCCCC3CN(C)C)c2)cc1 (stereo not drawn) [EXAMPLE 1, 3-(2-dimethylaminomethyl-1-hydroxy-cyclohexyl)-phenyl 2-(4-isobutyl-phenyl)-propionate] | ~900 | 210 ± 88 | 568 ± 100
3 | COc1ccc2cc(C(C)C(=O)Oc3cccc(C4(O)CCCCC4CN(C)C)c3)ccc2c1 (stereo not drawn) [EXAMPLE 2, 3-(2-dim-ethylaminomethyl-1-hydroxy-cyclohexyl)-phenyl 2-(6-methoxy-naphthalen-2-yl)-propionate] | – | – | 539 ± 50
4 | CN(C)CC1CCCCC1(O)c1cccc(OC(=O)C2CCn3c(C(=O)c4ccccc4)ccc32)c1 (stereo not drawn) [EXAMPLE 3, 3-(2-dimethylaminomethyl-1-hydroxy-cyclohexyl)-phenyl 5-benzoyl-2,3-dihydro-1H-pyrrolizine-1-carboxylate] | – | – | 416 ± 146
5 | CC(C)Cc1ccc(C(C)C(=O)Oc2cccc(C3=C(CN(C)C)CCCC3)c2)cc1 (stereo not drawn) [EXAMPLE 4, 3-(2-dimethylaminomethyl-cyclohex-1-enyl)-phenyl 2-(4-isobutyl-phenyl)-propionate] | – | – | 333 ± 134
6 | COc1ccc2cc(C(C)C(=O)Oc3cccc(C4=C(CN(C)C)CCCC4)c3)ccc2c1 (stereo not drawn) [EXAMPLE 5, 3-(2-dimethylaminomethyl-cyclohex-1-enyl)-phenyl 2-(6-methoxy-naphthalen-2-yl)-propionate] | – | – | 356 ± 151
7 | CN(C)CC1CCCCC1(O)c1cccc(OC(=O)c2ccccc2O)c1 (stereo not drawn) [EXAMPLE 6, 3-(2-dimethylaminomethyl-1-hydroxy-cyclohexyl)-phenyl (RR-SS)-2-hydroxybenzoate] | ~550 | 248 ± 72 | 546 ± 63
8 | CN(C)CC1=C(c2cccc(OC(=O)c3ccccc3O)c2)CCCC1 [EXAMPLE 7, 3-(2-dimethylaminomethyl-cyclohex-1-enyl)-phenyl 2-hydroxybenzoate] | – | – | 634 ± 42
9 | CN(C)CC1CCCCC1(O)c1cccc(OC(=O)c2ccccc2OC(=O)N(C)C)c1 (stereo not drawn) [EXAMPLE 8, 3-(2-dimethylaminomethyl-1-hydroxy-cyclohexyl)-phenyl (RR—SS)-2-dimethylcarbamoyloxy-benzoate] | – | – | 327 ± 65
